Results from patent US7531575B2, “Method of modulating cellular activity and agents useful for same” (Eberhard-Karls-Universität Tübingin, priority 2002, dated 2009).

How the values were obtained:
Assay type in all cases: cell-based, murine
NF-κB = NF-κB reporter assay, IFN-γ-stimulated N9 microglia; details: N9 cells, IFN-γ 200 u ml, tranilast 30-300 μM, 4 h preincubation
Protocol: N9 murine microglial cells were seeded in a 96-well plate (8×10^3 well) and allowed to adhere for 24 h. The cells were transfected with an NK-κB cis-reporter gene plasmid (PathDetect* no. 219077, Stratagene) which encodes firefly luciferase in a NF-κB-dependent-manner. For each transfection, 0.2 μg DNA and 0.6 μl FuGene (Roche, Mannheim, Germany) were used. The cells were either co-transfected with 0.02 μg of the pFC-Mekk positive control plasmid, included in the NF-κB cis-reporting system from Stratagene, or with the pcDNA-3 plasmid, to maintain a constant amount of total DNA. In order to assess the unspecific background, a control transfection with pcDNA-3 only was included in all experiments. After 24 h the cells were washed twice with PBS (0.12 M NaCl, 0.01 M NaH2PO4×H2O, 0.031 M K2HPO4) and lysed using 40 μl well of Cell Lysis Buffer (mM):tricine pH 7.8 40, NaCl 50, EDTA 2, MgSO4 1, DTT 5, 1% Triton* X-100, all from Sigma. To optimize lysis, a freeze-thaw cycle was performed. Then the lysate was transferred to a LumiNunc™ plate (Nunc, Roskilde, Denmark). Luciferase assay reagent (100 μl) containing (mM): tricine pH 7.8 40, MgSO4 10, EDTA 0.5, DTT 10, coenzyme A 0.5 and beetle luciferin 0.5, ([…]), (all from Sigma) were added and luminescence was measured in a LumimatPlus (EG&G Berthold, Pforzheim, Germany). […]

iNOS = iNOS activity by Griess assay (nitrite formation), LPS-stimulated N9 microglia; details: N9 cells, LPS 10 μg/mL, 48 hr, concentration series
From the text: (§1) TNL was a generous gift of Kissei Pharmaceuticals, LPC (Escherichia coli, 0127:BS), phorbol 12-myristate 13-acetate (PMA) and dexamethasone (DEX) were obtained from Sigma, BAY 11-7082 (BAY), NF-κB SN50 inhibitory peptide (SN50), GF 109203X (GFX) and rottlerin (ROT) were purchased from Biomol. PD098059 (PD) was obtained from Calbiochem. Purified murine interferon-γ (IFN-γ) was purchased from Roche Diagnostics. N9 murine microglial cells were a kind gift from P. Ricciardi-Castagnoli (Righi, M. et al. 1989 supra). Cells were cultured in Dulbecco's modified Eagle's medium (DMEM) supplemented with 10% fetal calf serum (FCS), 2 mM glutamine, penicillin (100 unit/mL) and streptomycin (100 μg/mL) and maintained at 37° in an atmosphere of 5% CO2. Viability was assessed by crystal violet staining.
iNOS activity was assessed by the Griess assay (Platten, M., Wick, W., Wischhusen, J. and Weller, M. Br J Pharmacol 134(6):1279-1284, 2001). Briefly, conditioned supernatant was incubated with an equal volume of Griess reagent containing 1% sulphanilamide, 0.1% naphthylethylenediamine dihydrochloride and 2.5% H3PO4 (Green, L. C., Wagner, D. A., Glogowski, J., Skipper, P. I., Wishnok, J. S, and Tannenbaum, S. R. Anal. Biochem., 126:131-138, 1982) for 5 min. at room temperature. The absorbance was measured at 546 nm. NaNO2 diluted in DMEM served as a standard. To control for cell number, the cells were stained with crystal violet. iNOS activity is expressed as nitrite accumulated in 48 hr/10^5 cells.

inhibitory-κB (I-κB) = experiment: phospho-IκBα immunoblot, LPS-stimulated N9 microglia; details: N9 cells, 1 hr, TNL pre-incubation 1 hr
From the text: as §1
(§2) For the preparation of whole cell lysates, the cells were lysed in 0.1 M Tris-HCl (pH 7.2) containing 0.1% NP40, 0.1 mM EDTA and 5 μg/mL phenylmethylsulphonyl fluoride. Twenty micrograms protein was separated by 10-12% SDS-PAGE and electroblotted on nitrocellulose membrane. Equal loading was controlled by Ponceau S staining. […]

ERK-1 = experiment: phospho-ERK-1/2 immunoblot, LPS-stimulated N9 microglia: ERK-1; details: N9 cells, LPS 10 μg/mL 10 min, TNL pre-incubation 1 hr
From the text: as §1, §2

PKCδ = PKCδ translocation by immunocytochemistry in N9 microglia; details: N9 cells, PMA 100 nM, TNL 300 μM
Protocol: Cells grown on glass coverslips were serum-starved for 16 hr, kept in Krebs Ringer HEPES buffer (125 mM NaCl, 5 mM KCl, 1.2 mM MgSO4, 2 mM CaCl2, 1.2 mM KH2PO4, 6 mM glucose, 25 mM HEPES, pH 7.4) for 1 hr and left untreated or treated with PMA (100 nM) without or with pre-incubation (1 hr) with TNL (300 μM). After fixation in ice-cold (−20′) methanol for 20 min, the cells were washed with PBS and incubated for 15 min with 0.1% NaBH4 and 0.1 M glycine in PBS to block autofluorescence. Nonspecific antibody binding was blocked for 45 min with PBG (PBS with 0.045% fish gelatin) containing 5% normal goat serum and 1% bovine serum albumin. Incubation with anti-PKCδ antibody was carried out for 24 hr at 4° after dilution in PBG containing 5% normal goat serum. After four washes with PBG, primary antibody binding was detected with an isotype-specific secondary antibody conjugated with Alexa™546 fluorescent dye. The coverslips were mounted in PermaFluor (Immunotech). Localization of the proteins was examined using confocal laser microscopy (Leica).

COc1ccc(/C=C/C(=O)Nc2ccccc2C(=O)O)cc1OC [tranilast, 2-[[3-(3,4-dimethoxyphenyl)-1-oxo-2-propenyl]amino]benzoic acid]
NF-κB reporter gene activity in response to IFN-γ (NF-κB): concentration-dependent suppression
nitrite formation after LPS (iNOS): concentration-dependent decrease
LPS-mediated phosphorylation of I-κB (inhibitory-κB (I-κB)): did not suppress
phospho-ERK-1 protein level after LPS (ERK-1): remained unchanged
PMA-induced translocation of PKCδ from cytosol to nucleus (PKCδ): abolished
